The target of the test is T1, BTK(C481S)-GFP (Homo sapiens, UniProt Q06187+Q96SW2, C481S).
T1 construct: CHYSEL (cis-acting hydrolase element, 2A) remnant after GFP; mCherry is split off as a separate protein (C); expressed in transfected cells; host or cells: TMD8 cells, lentiviral transduction with pLenti6-BTK(C481S)-GFP-CHYSEL-mCherry
Kind of test: BTK(C481S)-GFP protein abundance flow cytometry assay in TMD8 cells. The class given is cell-based. As to conditions: TMD8 cells expressing BTK(C481S)-GFP; for DC50: GFP signal by flow cytometry; for BTK (C481S) Amax: % protein remaining at maximum degradation. The procedure:
Compounds of the invention were tested in the following cellular assays. The terms in Table 2 are defined as follows: DC50 refers to the concentration at which 50% maximal degradation was observed; deg Amax is the extent of degradation and the value refers to the % protein remaining at the concentration at which maximum degradation is seen; ProI GI50 refers to the proliferation data and defines the concentration at which 50% growth inhibition was observed compared to the vehicle treated control at the end of the incubation time. TMD8 cells are BTK dependent and OCI-LY3 cells are BTK independent.
Btk(C481S)-GFP Protein Abundance Flow Cytometry Assay in TMD8 Cells:
Degradation of BTK(C481S) was measured in TMD8 cells expressing BTK(C481S)-GFP and mCherry from a stably integrated second generation bicistronic BTK(C481S)-GFP-CHYSEL-mCherry construct. Reduction of the […] measured by flow cytometry served as readout for BTK(C481S) degradation after degrader treatment.
Cloning of the pLenti6-BTK(C481)-GFP-CHYSEL-mCherry Sensor Vectors
The BTK(C481 S) protein abundance sensor is based on a second generation bicistronic construct, where the 2 reading frames BTK(C481S) and mCherry control are separated by a cis-acting hydrolase element (see: Lo et al., 2015 Cell Reports 13, 2634), replacing the Ires from the first generation vector described before.
The bicistronic BTK(C481S)-GFP-CHYSEL-mCherry construct is based on a pLenti6-DEST vector backbone where a GFP-CHYSEL-mCherry cassette was synthesized and inserted downstream of the DEST cassette by Gibson assembly resulting in the new gateway compatible vector pLenti6-DEST-GFP-CHYSEL-mCherry to allow Gateway cloning with pENTR221-BTK(C48S)(STOP-Leu) to obtain the final sensor construct pLenti6-BTK(C481S)-GFP-CHYSEL-mCherry. The pENTR221-BTK(C481S)(STOP-Leu) was generated by mutating wild-type BTK to BTK(C481S) with a mutagenesis reaction on pENTR221-BTK (STOP-Leu) with the following primers (BTK C481S Quikchange fw, gagtacatggccaatggctCcctcctgaactacctgagg (SEQ ID NO: 7); BTK C481S Quikchange REVC, cctcaggtagttcaggaggGagccattggccatgtactc (SEQ ID NO: 8)) using the QuikChange Lightning mutagenesis kit (Agilent Technologies #210518) performed according to the manufacturer's manual, resulting in pENTR221-BTK(C481S)(STOP-Leu).
Sequence of the synthesized construct (Xho1 sites are shown in bold, mCherry-ORF is shown in small letters):
Engineering of Stably Expressing TMD8 BTK(C481 S-GFP-CHYSEL-mCherry Sensor Cells
TMD8 BTK(C481S)-GFP-CHYSEL-mCherry sensor cells were generated by lentiviral vector transduction using the pLenti6-BTK(C4818)-GFP-CHYSEL-mCherry sensor construct described before. Lentiviral particles were produced in HEK293FT cells (Invitrogen R70007) by co-transfection of 500 ng pLenti6-BTK-GFP-Ires-RFP or pLenti6-IKZF3-GFP-Ires-RFP, 500 ng delta8.71 and 200 ng pVSVG diluted in 100 μl OptiMEM serum free medium (Invitrogen #11058-021) that was mixed after 5 min preincubation with 3 μl of Lipofectamine2000 (Invitrogen #11668-019) in 97 μl OptiMEM serum free medium. The mix was incubated for another 20 min at RT and then added to 1 ml of a freshly prepared suspension of HEK293FT cells in a well of a 6-well plate (concentration 1.2×10^6 cells/ml). 1 day after transfection, the medium was replaced with 1.5 ml of complete growth medium (DMEM high Glucose+10% FCS+1% L-Glutamine+1% NEAA+1% NaPyr.). 48 h post transfection supernatant containing viral transducing particles was collected and frozen at −80° C.
Two days before transduction with viral particles 1×10^5 HEK293A cells (Invitrogen R7057) were seeded in 2 ml growth medium in a well of a 6-well plate. Infection was performed with 90 μl of collected supernatant containing viral transducing particles in 1 ml medium including 8 μg/ml polybrene. 24 h post infection, stably transfected cells were selected with blasticidin at a concentration of 8 μg/ml.

The text below walks through data of patent US12441733B2, “Substituted 2,4-dioxotetrahydropyrimidines as intermediates in the synthesis of bruton's tyrosine kinase inhibitors” (Novartis AG, priority 2018, dated 2025).

T1 sequence (Q06187 whole entry C481S): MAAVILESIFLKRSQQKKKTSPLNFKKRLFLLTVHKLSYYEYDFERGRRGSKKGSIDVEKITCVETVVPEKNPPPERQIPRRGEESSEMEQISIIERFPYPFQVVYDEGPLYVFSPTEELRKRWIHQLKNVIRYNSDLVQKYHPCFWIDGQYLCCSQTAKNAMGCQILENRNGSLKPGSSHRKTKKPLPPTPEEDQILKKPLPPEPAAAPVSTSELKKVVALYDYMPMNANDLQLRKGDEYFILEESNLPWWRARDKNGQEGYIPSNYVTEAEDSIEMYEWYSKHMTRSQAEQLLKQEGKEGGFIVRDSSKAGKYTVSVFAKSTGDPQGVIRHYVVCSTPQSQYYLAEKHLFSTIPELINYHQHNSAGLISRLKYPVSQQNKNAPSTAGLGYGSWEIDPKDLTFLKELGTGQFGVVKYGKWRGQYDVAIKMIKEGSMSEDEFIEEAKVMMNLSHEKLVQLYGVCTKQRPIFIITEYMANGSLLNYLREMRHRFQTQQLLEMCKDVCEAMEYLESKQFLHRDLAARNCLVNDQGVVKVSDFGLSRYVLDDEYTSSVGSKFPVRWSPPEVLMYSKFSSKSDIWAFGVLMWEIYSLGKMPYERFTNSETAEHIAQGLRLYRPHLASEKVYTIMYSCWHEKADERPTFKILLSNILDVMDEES
T1 sequence (Q96SW2 whole entry): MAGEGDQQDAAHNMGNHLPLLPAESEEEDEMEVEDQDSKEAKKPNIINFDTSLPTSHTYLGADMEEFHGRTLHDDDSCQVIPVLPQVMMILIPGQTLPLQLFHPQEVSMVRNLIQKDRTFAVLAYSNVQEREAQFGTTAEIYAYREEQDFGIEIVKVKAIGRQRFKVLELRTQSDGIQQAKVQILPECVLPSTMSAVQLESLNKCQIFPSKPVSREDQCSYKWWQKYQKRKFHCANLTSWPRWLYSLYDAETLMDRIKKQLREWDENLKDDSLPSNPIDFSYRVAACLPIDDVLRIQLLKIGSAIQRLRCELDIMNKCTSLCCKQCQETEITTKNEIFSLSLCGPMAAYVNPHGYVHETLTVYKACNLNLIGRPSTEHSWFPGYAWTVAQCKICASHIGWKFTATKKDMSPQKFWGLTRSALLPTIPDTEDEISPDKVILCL
T1 sequence (Q16531 whole entry partner): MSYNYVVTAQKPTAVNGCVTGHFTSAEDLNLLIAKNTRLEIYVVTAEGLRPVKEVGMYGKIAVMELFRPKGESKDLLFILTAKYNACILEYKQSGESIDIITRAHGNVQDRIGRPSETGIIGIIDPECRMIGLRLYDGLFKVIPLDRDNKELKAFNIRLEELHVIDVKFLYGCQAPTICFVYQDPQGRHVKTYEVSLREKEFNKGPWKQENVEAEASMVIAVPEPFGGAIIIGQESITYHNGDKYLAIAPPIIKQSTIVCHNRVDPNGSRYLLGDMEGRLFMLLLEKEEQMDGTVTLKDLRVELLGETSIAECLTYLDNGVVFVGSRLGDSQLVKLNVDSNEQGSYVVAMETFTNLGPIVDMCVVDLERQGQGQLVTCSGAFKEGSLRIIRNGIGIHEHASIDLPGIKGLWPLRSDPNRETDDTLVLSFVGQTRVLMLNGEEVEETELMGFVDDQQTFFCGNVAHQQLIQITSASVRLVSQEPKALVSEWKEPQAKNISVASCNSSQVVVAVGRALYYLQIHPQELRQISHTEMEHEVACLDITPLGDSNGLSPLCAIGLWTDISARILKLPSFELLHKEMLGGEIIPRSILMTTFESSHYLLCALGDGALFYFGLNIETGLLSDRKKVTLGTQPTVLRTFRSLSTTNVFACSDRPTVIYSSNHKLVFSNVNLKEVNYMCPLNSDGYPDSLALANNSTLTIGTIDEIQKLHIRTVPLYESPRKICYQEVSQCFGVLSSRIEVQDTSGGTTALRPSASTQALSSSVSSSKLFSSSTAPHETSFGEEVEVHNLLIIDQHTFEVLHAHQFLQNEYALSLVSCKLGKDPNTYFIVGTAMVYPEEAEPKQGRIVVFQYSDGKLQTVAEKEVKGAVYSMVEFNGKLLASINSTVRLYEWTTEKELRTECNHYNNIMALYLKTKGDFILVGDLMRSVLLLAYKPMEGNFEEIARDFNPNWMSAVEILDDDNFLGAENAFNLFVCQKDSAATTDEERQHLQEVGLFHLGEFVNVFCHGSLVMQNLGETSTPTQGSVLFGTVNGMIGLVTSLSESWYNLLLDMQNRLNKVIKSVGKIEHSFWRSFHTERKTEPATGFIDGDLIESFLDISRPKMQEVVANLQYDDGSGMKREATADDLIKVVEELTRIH

With `CCOc1ccc(C(=O)N2CCC3(CCN(Cc4ccc(-c5cc6c(-c7cc(F)cc(NC(=O)c8ccc(C(C)(C)O)cc8F)c7C)ncnc6[nH]5)cc4)CC3)CC2)cc1N1CCC(=O)NC1=O` [Compound 4, N-(3-(6-(4-((9-(3-(2,4-Dioxotetrahydropyrimidin-1(2H)-yl)-4-ethoxybenzoyl)-3,9-diazaspiro[5.5]undecan-3-yl)methyl)phenyl)-7H-pyrrolo[2,3-d]pyrimidin-4-yl)-5-fluoro-2-methylphenyl)-2-fluoro-4-(2-hydroxypropan-2-yl)benzamide], the DC50 turned out to be 2.08 nM and the “BTK (C481S) Amax” value is 2.2%.

On to `Cc1ccc(C(=O)N2CCC3(CCN(CCc4ccc(-c5cc6c(-c7cc(F)cc(NC(=O)c8ccc(C(C)(C)O)cc8F)c7C)ncnc6[nH]5)cc4)CC3)CC2)cc1N1CCC(=O)NC1=O` [Compound 5, N-(3-(6-(4-(2-(9-(3-(2,4-Dioxotetrahydropyrimidin-1(2H)-yl)-4-methylbenzoyl)-3,9-diazaspiro[5.5]undecan-3-yl)ethyl)phenyl)-7H-pyrrolo[2,3-d]pyrimidin-4-yl)-5-fluoro-2-methylphenyl)-2-fluoro-4-(2-hydroxypropan-2-yl)benzamide], for which the DC50 worked out at 0.57 nM and the “BTK (C481S) Amax” value was 2.5%.

As for `Cc1c(NC(=O)c2ccc(C(C)(C)O)cc2F)cc(F)cc1-c1ncnc2[nH]c(-c3ccc(COC4CCN(CCC5CCN(C(=O)c6ccc(F)c(N7CCC(=O)NC7=O)c6)CC5)CC4)cc3)cc12` [Compound 6, N-(3-(6-(4-(((1-(2(1-(3-(2,4-dioxotetrahydropyrimidin-1(2H)-yl)-4-fluorobenzoyl)piperidin-4-yl)ethyl)piperidin-4-yl)oxyl)methyl)phenyl)-7H-pyrrolo[2,3-d]pyrimidin-4-yl)-5-fluoro-2-methylphenyl)-2-fluoro-4-(2-hydroxypropan-2-yl)benzamide], the DC50 stood at 0.72 nM and the “BTK (C481S) Amax” value was 2.1%.

Consider `COc1ccc(C(=O)N2CCC(OC3CCN(Cc4ccc(-c5cc6c(-c7cc(F)cc(NC(=O)c8ccc(C(C)(C)O)cc8F)c7C)ncnc6[nH]5)cc4)CC3)CC2)cc1N1CCC(=O)NC1=O` [Compound 8, N-(3-(6-(4-((4-((1-(3-(2,4-dioxotetrahydropyrimidin-1(2H)-yl)-4-methoxybenzoyl)piperidin-4-yl)oxyl)piperidin-1-yl)methyl)phenyl)-7H-pyrrolo[2,3-d]pyrimidin-4-yl)-5-fluoro-2-methylphenyl)-2-fluoro-4-(2-hydroxypropan-2-yl)benzamide], for which the DC50 was found to be 2.08 nM and the “BTK (C481S) Amax” value was determined as 2.7%.

With `COc1ccc(C(=O)N2CCC3(CCN(Cc4ccc(-c5cc6c(-c7cc(F)cc(NC(=O)c8ccc(C(C)(C)O)cc8F)c7C)ncnc6[nH]5)cc4)CC3)CC2)cc1N1CCC(=O)NC1=O` [Compound 9, N-(3-(6-(4-((9-(3-(2,4-Dioxotetrahydropyrimidin-1(2H)-yl)-4-methoxybenzoyl)-3,9-diazaspiro[5.5]undecan-3-yl)methyl)phenyl)-7H-pyrrolo[2.3-d]pyrimidin-4-yl)-5-fluoro-2-methylphenyl)-2-fluoro-4-(2-hydroxypropan-2-yl)benzamide], the DC50 worked out at 1.92 nM and the “BTK (C481S) Amax” value is 4.5%.

Take `Cc1c(NC(=O)c2ccc(C(C)(C)O)cc2F)cc(F)cc1-c1ncnc2[nH]c(-c3ccc(CCN4CCC5(CC4)CCN(C(=O)c4cccc(N6CCC(=O)NC6=O)c4)CC5)cc3)cc12` [Compound 12, N-(3-(6-(4-(2-(9-(3-(2,4-Dioxotetrahydropyrimidin-1(2H)-yl)benzoyl)-3,9-diazaspiro[5,5]undecan-3-yl)ethyl)phenyl)-7H-pyrrolo[2,3-d]pyrimidin-4-yl)-5-fluoro-2-methylphenyl)-2-fluoro-4-(2-hydroxypropan-2-yl)benzamide]: the DC50 was 1.58 nM and the “BTK (C481S) Amax” value is on record as 2.9%.

In the case of `Cc1c(NC(=O)c2ccc(C(C)(C)O)cc2F)cc(F)cc1-c1ncnc2[nH]c(-c3ccc(CN4CCC5(CC4)CCN(C(=O)c4ccc(F)c(N6CCC(=O)NC6=O)c4)CC5)cc3)cc12` [Compound 14, N-(3-(6-(4-((9-(3-(2,4-Dioxotetrahydropyrimidin-1(2H)-yl)-4-fluorobenzoyl)-3,9-diazaspiro[5.5]undecan-3-yl)methyl)phenyl)-7H-pyrrolo[2.3-d]pyrimidin-4-yl)-5-fluoro-2-methylphenyl)-2-fluoro-4-(2-hydroxypropan-2-yl)benzamide], the DC50 turned out to be 1.52 nM and the “BTK (C481S) Amax” value is on record as 2.8%.

Turning to `COc1ccc(C(=O)N2CCC(CN3CCC(Oc4ccc(-c5cc6c(-c7cc(F)cc(NC(=O)c8ccc(C(C)(C)O)cc8F)c7C)ncnc6[nH]5)cc4)CC3)CC2)cc1N1CCC(=O)NC1=O` [Compound 19, N-(3-(6-(4-((1-((1-(3-(2,4-Dioxotetrahydropyrimidin-1(2H)-yl)-4-methoxybenzoyl)piperidin-4-yl)methyl)piperidin-4-yl)oxyl)phenyl)-7H-pyrrolo[2,3-d]pyrimidin-4-yl)-5-fluoro-2-methylphenyl)-2-fluoro-4-(2-hydroxypropan-2-yl)benzamide], the DC50 is 0.62 nM and the “BTK (C481S) Amax” value stood at 2.7%.

For `COc1ccc(C(=O)N2CCC3(CC2)CCN(C(C)(C)Cc2ccc(-c4cc5c(-c6cc(F)cc(NC(=O)c7ccc(C(C)(C)O)cc7F)c6C)ncnc5[nH]4)cc2)CC3)cc1N1CCC(=O)NC1=O` [Compound 20, N-(3-(6-(4-(2-(9-(3-(2,4-Dioxotetrahydropyrimidin-1(2H)-yl)-4-methoxybenzoyl)-3,9-diazaspiro[5.5]undecan-3-yl)-2-methylpropyl)phenyl)-7H-pyrrolo[2,3-d]pyrimidin-4-yl)-5-fluoro-2-methylphenyl)-2-fluoro-4-(2-hydroxypropan-2-yl)benzamide], the DC50 was found to be 0.68 nM and the “BTK (C481S) Amax” value was 2.4%.

For the compound `COc1ccc(C(=O)N2CCN(C(=O)N3CCN(Cc4ccc(-c5cc6c(-c7cc(F)cc(NC(=O)c8ccc(C(C)(C)O)cc8F)c7C)ncnc6[nH]5)cc4)CC3)CC2)cc1N1CCC(=O)NC1=O` [Compound 22, N-(3-(6-(4-((4-(4-(3-(2,4-Dioxotetrahydropyrimidin-1(2H)-yl)-4-methoxybenzoyl)piperazine-1-carbonyl)piperazin-1-yl)methyl)phenyl)-7H-pyrrolo[2,3-d]pyrimidin-4-yl)-5-fluoro-2-methylphenyl)-2-fluoro-4-(2-hydroxypropan-2-yl)benzamide], the DC50 was found to be 2.47 nM and the “BTK (C481S) Amax” value is listed as 4.5%.

With `Cc1ccc(C(=O)N2CCC3(CCN(Cc4ccc(-c5cc6c(-c7cc(F)cc(NC(=O)c8ccc(C(C)(C)O)cc8F)c7C)ncnc6[nH]5)cc4)CC3)CC2)cc1N1CCC(=O)NC1=O` [Compound 27, N-(3-(6-(4-((9-(3-(2,4-Dioxotetrahydropyrimidin-1(2H)-yl)-4-methylbenzoyl)-3,9-diazaspiro[5.5]undecan-3-yl)methyl)phenyl)-7H-pyrrolo[2,3-d]pyrimidin-4-yl)-5-fluoro-2-methylphenyl)-2-fluoro-4-(2-hydroxypropan-2-yl)benzamide], the DC50 was 0.81 nM and the “BTK (C481S) Amax” value worked out at 2.8%.
